ChEMBL document CHEMBL4680367, “Targeting Stimulator of Interferon Genes (STING) for the Potential Treatment of Cancer and Infectious Diseases” (ACS Med Chem Lett, 2021)

Target: Stimulator of interferon genes protein (Homo sapiens, UniProt Q86WV6)
Experiment: Agonist activity at full length human STING expressed in HEK293T cotransfected with pISRE-luc and cGAS incubated for 24 hrs by steady-glo luciferase reporter gene assay
Assay type: cell-based

Chain of Stimulator of interferon genes protein (Q86WV6 whole entry): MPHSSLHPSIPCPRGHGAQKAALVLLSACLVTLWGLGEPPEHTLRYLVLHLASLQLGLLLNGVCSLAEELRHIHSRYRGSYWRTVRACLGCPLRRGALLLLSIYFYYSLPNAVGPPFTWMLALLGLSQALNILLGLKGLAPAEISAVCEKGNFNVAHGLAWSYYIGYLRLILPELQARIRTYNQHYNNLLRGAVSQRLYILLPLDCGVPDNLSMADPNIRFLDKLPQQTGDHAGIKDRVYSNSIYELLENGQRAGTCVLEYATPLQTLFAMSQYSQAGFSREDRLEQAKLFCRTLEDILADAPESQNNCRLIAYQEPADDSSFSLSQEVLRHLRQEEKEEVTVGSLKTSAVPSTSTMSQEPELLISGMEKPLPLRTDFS

- EC50: 1 µM
SMILES: CCCn1c(NC(=O)c2cc(C)nn2CC)nc2cc(C(N)=O)cc(OCN3CCOCC3)c21
